Experimental data from patent publication US20030206946A1, “Methods for therapy of connective tissue disease” (priority 2002, published 2003).

Experiments:
[1] = test system: adjuvant arthritis, right hind paw (with CFA); assay: Adjuvant arthritis (CFA), Acute Phase, right hind paw volume; assay type: in vivo, Long Evans rats
Procedure: (§1) A well-ground suspension of killed Mycobacterium tuberculosis (DIFCO, USA; 0.3 mg in 0.1 ml of light mineral oil; Complete Freund's Adjuvant, CFA) was administered into the subplantar region of the right hind paw immediately after first dosing on first day (denoted day 1). Hind paw volume was measured by Plethsmometer (Cat. No. 7150, UGO BASILE, Italy) and Water cell (25 mm diameter, Cat. No. 7157, UGO BASILE, Italy) on day 0 (before CFA treated), 1, 5, 10, and 15 after CFA of right paw (with CFA), and day 0, 14, and 18 of left paw (without CFA); rats were weighed just before first dose and 1 hour after final dose. Right hind paw volume (Acute Phase) was measured 4 hours after CFA treated (denoted as day 1) and day 5, day 10 and day 15 after CFA. The contralateral left hind paw volume (Delayed Phase) was measured at day 14 and day 18. The inflammatory activity in this model was denoted by values calculated during the Acute Phase as well as the Delayed Phase.
(§2) The animal model for connective tissue disease was established according to the report by Winter C A, et al., Arthritis Rheum. 1966, 9:394-404. Groups of 5 Long Evans rats weighing 150±20 g were used. The 10% of phenylbutyrate cream and 1% of trichostatin A ointment at a dose of 200 mg/paw and 10 mg/paw, respectively, were applied topically twice daily for 18 consecutive days. A well-ground suspension of killed Mycobacterium tuberculosis (DIFCO, USA; 0.3 mg in 0.1 ml of light mineral oil; Complete Freund's Adjuvant, CFA) was administered into the subplantar region of the right hind paw immediately after first dosing on first day (denoted day 1). Hind paw volume was measured by Plethsmometer (Cat. No. 7150, UGO BASILE, Italy) and Water cell (25 mm diameter, Cat. No. 7157, UGO BASILE, Italy) on day 0 (before CFA treated), 1, 5, 10, and 15 after CFA of right paw (with CFA), and day 0, 14, and 18 of left paw (without CFA); rats were weighed just before first dose and 1 hour after final dose. Anti-inflammatory activity in this model was denoted by values calculated during the Acute Phase (the right hind paw volume) as well as the Delayed Phase (the contralateral left hind paw volume). For CFA-injected vehicle control rats, animals were also weighed on day 0 and day 18; CFA-injected vehicle control animals generally gain between 20 to 40 g body weight over this time period. A 30% or more reduction in paw volume relative to vehicle treated controls was considered significant.

[2] = test system: adjuvant arthritis, left hind paw (without CFA); assay: Adjuvant arthritis (CFA), Delayed Phase, contralateral left hind paw volume; assay type: in vivo, Long Evans rats; conditions: for systematic inhibition effect in delayed phase (left paw), in words: summary of Table 2
Procedure: as §1, §2

[3] = test system: acetylated histone H3 in synovial fibroblasts from adjuvant arthritis; assay: Accumulation of acetylated histones in synovial fibroblasts (western blot, immunofluorescence with anti-acetylated H3 antibody); assay type: cell-based, rats; conditions: phenylbutyrate 2 mM, trichostatin A 200 nM; 6 h for immunofluorescence
Procedure: At day 10, synovial samples were obtained from the established adjuvant arthritis rats. The collected synovial tissues were digested with 5 mg/ml collagenase (sigma) and 1.5 mg/ml DNase (sigma), and were passed through a wire mesh to prepare isolated cells. Cells (0.5×10^6) were placed in 10-cm dishes with 10 ml RPMI 1640 medium (Gibco) supplemented with 10% fetal calf serum, 2 mM L-glutamine, 50 U/ml penicillin and […] streptomycin. Cells were detached with trypsin-EDTA solution and passed for subculture when 90% confluency was reached. The synovial cells used were of passage 5. Proliferating synovial fibroblasts from adjuvant arthritis were treated with phenylbutyrate or trichostatin A, and proliferation was determined by incorporation of ^3H-thymidine, which was present during last 24 hours of culture. 4-phenylbutyrate (Merck) dissolved in sterile water with NaOH and adjusted to pH 7.2, or sodium phenylbutyrate (Triple Crown, U.S.A) dissolved in sterile water or trichostatin A (sigma) dissolved in ethanol were used. […] Hyperacetylated histones were detected by use of the antibody that specifically recognizes the hyperacetylated form of histone H3 (upstate biotechnology). […] The results were expressed as percentage value relative to the control culture (no drug addition). […]

[4] = test system: synovial fibroblasts from adjuvant arthritis; assay: Proliferation of synovial fibroblasts by 3H-thymidine incorporation; assay type: cell-based, rats; conditions: 3H-thymidine present during last 24 hours of culture; relative to control culture
Procedure: At day 10, synovial samples were obtained from the established adjuvant arthritis rats. The collected synovial tissues were digested with 5 mg/ml collagenase (sigma) and 1.5 mg/ml DNase (sigma), and were passed through a wire mesh to prepare isolated cells. Cells (0.5×10^6) were placed in 10-cm dishes with 10 ml RPMI 1640 medium (Gibco) supplemented with 10% fetal calf serum, 2 mM L-glutamine, 50 U/ml penicillin and […] streptomycin. Cells were detached with trypsin-EDTA solution and passed for subculture when 90% confluency was reached. The synovial cells used were of passage 5. Proliferating synovial fibroblasts from adjuvant arthritis were treated with phenylbutyrate or trichostatin A, and proliferation was determined by incorporation of ^3H-thymidine, which was present during last 24 hours of culture. 4-phenylbutyrate (Merck) dissolved in sterile water with NaOH and adjusted to pH 7.2, or sodium phenylbutyrate (Triple Crown, U.S.A) dissolved in sterile water or trichostatin A (sigma) dissolved in ethanol were used. […] Hyperacetylated histones were detected by use of the antibody that specifically recognizes the hyperacetylated form of histone H3 (upstate biotechnology).

[5] = test system: p16 and p21 in synovial fibroblasts from adjuvant arthritis; assay: Western blot of p16 and p21 in synovial fibroblasts; assay type: cell-based, rats; conditions: phenylbutyrate 2 mM, trichostatin A 200 nM; 12 h
[6] = test system: inflammation of skin, joints and soft tissues in connective tissue disease; assay: Gross views and histology of paw joints, skin and soft tissues in adjuvant arthritis; assay type: in vivo, Long Evans rats; conditions: topical 10% phenylbutyrate cream or 1% trichostatin A ointment vs vehicle
Procedure: as §2, with “A 30% or more reduction in paw volume relative to vehicle treated controls was considered significant.” left out

[7] = test system: p16 in the synovium of connective tissue disease; assay: p16 immunohistochemistry of synovium in adjuvant arthritis; assay type: in vivo, Long Evans rats; conditions: treated vs vehicle group
Excerpt: FIGS. 8G-[…] are from lower magnification to higher magnification showing the severe synovial hyperplasia and panus formation in connective tissue disease deteriorating the cartilage and bone of joints (left panel: H&E stain). In contrast, there is no p16 staining in the invasive synovium of the vehicle group when compared to the synovium in the treated group (right panel: immunohistochemistry).

[8] = test system: TNF-α in the connective tissues of connective tissue disease; assay: TNF-α immunohistochemistry of connective tissues in adjuvant arthritis; assay type: in vivo, Long Evans rats; conditions: treated vs vehicle group
histone deacetylases = conditions: background statement; cited from earlier work
[9] = Acute Phase, right hind paw volume, topical twice daily x 18 days or PO x 5, parentheses mark 30% or more

Compound: C[C@]12CCC(=O)C=C1CC[C@@H]1[C@@H]2[C@@H](O)C[C@@]2(C)[C@H]1CC[C@]2(O)C(=O)CO [Hydrocortisone, hydrocortisone]
- % Inhibition relative to vehicle treated, Day (5-0) [1, 9]: (35) %
- % Inhibition relative to vehicle treated, Day (10-0) [1, 9]: (39) %
- % Inhibition relative to vehicle treated, Day (15-0) [1, 9]: 23%
- % Inhibition relative to vehicle treated, Day (1-0) ([1]; Acute Phase, unilateral ankle joint/right hind paw volume, topical twice daily x 18 days or PO x 5, parentheses mark 30% or more (significant)): (35) %
- anti-inflammatory effect in Acute Phase, in words ([1]; right hind paw, summary of Table 2): marked inhibition effect of hydrocortisone is shown on day 1; however, the effect reduces after day 10
- % Inhibition relative to vehicle treated, Day (14-0) ([2]; Delayed Phase, contralateral ankle joint/left hind paw volume, parentheses mark 30% or more): (30) %
- % Inhibition relative to vehicle treated, Day (18-14) ([2]; Delayed Phase, contralateral left hind paw volume): 20%
- % Inhibition relative to vehicle treated, Day (18-0) ([2]; Delayed Phase, contralateral left hind paw volume, parentheses mark 30% or more): 27%
- systematic inhibition effect in delayed phase (left paw), in words [2]: partially shown

Compound: O=C(O)CCCc1ccccc1 [phenylbutyrate, 4-phenylbutyrate]
- systematic inhibition effect in delayed phase (left paw), in words [2]: not significant
- accumulation of acetylated histones [3]: induce an accumulation of acetylated histones
- growth inhibition of synovial fibroblasts [4]: dose- and time- dependent growth inhibition
- upregulation of p16 and p21, cell cycle inhibitors [5]: induce upregulation of p16 and p21
- suppression of connective tissue disease (swelling, pannus, synovial hyperplasia, lymphocyte infiltration), in words [6]: pannus formation is blocked
- p16 expression in synovium [7]: upregulated
- TNF-α staining in connective tissues [8]: only small amount of TNF-α was stained in the skin
- concentration range of histone deacetylase inhibition (histone deacetylases): millimolar concentrations

Compound: CC(/C=C/C(=O)NO)=C\[C@@H](C)C(=O)c1ccc(N(C)C)cc1 [trichostatin A]
- systematic inhibition effect in delayed phase (left paw), in words [2]: not significant
- accumulation of acetylated histones [3]: induce an accumulation of acetylated histones
- growth inhibition of synovial fibroblasts [4]: dose- and time- dependent growth inhibition
- upregulation of p16 and p21, cell cycle inhibitors [5]: induce upregulation of p16 and p21
- p16 expression in synovium [7]: upregulates p16 expression
- TNF-α staining in connective tissues [8]: no TNF-α staining in soft tissues
- concentration range of histone deacetylase inhibition (histone deacetylases): submicromolar range
